Data from ChEMBL document CHEMBL1201862, “PubChem BioAssay data set” (2004).
Active and inactive are the calls of the source.

Tests used:
Vasopressin V1a receptor = Vasopressin V1a receptor (Homo sapiens, UniProt P37288); assay: Fluorescence-based cell-based high throughput dose response screening assay for agonists of the vasopressin 1 receptor (V1R).; type: functional
Oxytocin receptor = Oxytocin receptor (Homo sapiens, UniProt P30559); assay: Counterscreen for vasopressin 1 receptor (V1R) agonists: Fluorescence-based cell-based high throughput dose response assay for agonists of the Oxytocin Receptor (OXTR). [Related pubchem assays: 2435 (Primary screen (OXTR agonists in singlicate)), 434964 (Confirmation screen (V1R agonists in triplicate)), 434969 (Counterscreen (OXTR agonists in …; type: functional
Oxytocin receptor, sequence (P30559 whole entry): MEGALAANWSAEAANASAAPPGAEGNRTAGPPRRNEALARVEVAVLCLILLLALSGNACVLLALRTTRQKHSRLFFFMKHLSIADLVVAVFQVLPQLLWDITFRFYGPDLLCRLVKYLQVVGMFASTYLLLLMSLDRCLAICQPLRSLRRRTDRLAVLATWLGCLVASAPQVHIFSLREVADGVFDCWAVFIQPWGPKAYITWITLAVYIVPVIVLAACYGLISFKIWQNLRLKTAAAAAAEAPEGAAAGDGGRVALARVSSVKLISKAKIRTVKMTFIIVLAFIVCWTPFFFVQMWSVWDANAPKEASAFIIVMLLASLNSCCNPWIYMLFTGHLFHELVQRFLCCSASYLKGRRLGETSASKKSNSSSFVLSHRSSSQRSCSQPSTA

Troponin, cardiac muscle = Troponin, cardiac muscle (Homo sapiens, UniProt P19429+P45379+P63316); assay: Fluorescence-based biochemical high throughput dose response assay for activators of the calcium sensitivity of cardiac Regulated Thin Filaments (RTF). [Related pubchem assays (depositor defined):AID493008, AID493018, AID504382, AID504383]; type: protein-complex assay
[1] = biological target: Epstein-Barr nuclear antigen 1 (Epstein-Barr virus (strain B95-8) (HHV-4) (Human herpesvirus 4), UniProt P03211); assay: EBNA-1 inhibitors, dose response, biochemical, fluorescence polarization, 1536-well (AID 2381); design: species or system human gammaherpesvirus 4;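 note: fluorescence polarization of a Cy5 DNA probe bound by EBNA-1 protein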
Epstein-Barr nuclear antigen 1, sequence (P03211 whole entry): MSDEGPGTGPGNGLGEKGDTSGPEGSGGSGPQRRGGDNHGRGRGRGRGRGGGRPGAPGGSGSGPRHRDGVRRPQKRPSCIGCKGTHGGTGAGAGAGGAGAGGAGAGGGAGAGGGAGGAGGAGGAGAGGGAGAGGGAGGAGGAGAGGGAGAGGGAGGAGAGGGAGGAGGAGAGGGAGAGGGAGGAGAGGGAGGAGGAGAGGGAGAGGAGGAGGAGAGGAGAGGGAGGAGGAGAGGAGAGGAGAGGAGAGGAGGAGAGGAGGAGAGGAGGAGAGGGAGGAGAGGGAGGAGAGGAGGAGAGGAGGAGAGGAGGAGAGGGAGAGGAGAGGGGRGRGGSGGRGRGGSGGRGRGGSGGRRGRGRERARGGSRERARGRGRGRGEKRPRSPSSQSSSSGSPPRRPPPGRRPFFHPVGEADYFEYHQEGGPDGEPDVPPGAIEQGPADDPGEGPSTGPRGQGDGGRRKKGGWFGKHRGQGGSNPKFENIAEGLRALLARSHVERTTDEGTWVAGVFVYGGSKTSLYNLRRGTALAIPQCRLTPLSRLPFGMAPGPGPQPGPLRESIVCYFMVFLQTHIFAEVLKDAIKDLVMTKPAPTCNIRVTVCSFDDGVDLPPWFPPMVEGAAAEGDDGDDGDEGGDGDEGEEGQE

[2] = biological target: Lytic switch protein BZLF1 (Epstein-Barr virus (strain B95-8) (HHV-4) (Human herpesvirus 4), UniProt P03206); assay: EBV ZTA inhibitors, dose response, counter-screen for EBNA-1 inhibitor project, biochemical, fluorescence polarization, Epstein-Barr virus, 1536-well (AID 2377); design: species or system human gammaherpesvirus 4;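 note: fluorescence polarization of Cy5-labelled ZRE DNA probe bound by purified Zta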
Lytic switch protein BZLF1, sequence (P03206 whole entry): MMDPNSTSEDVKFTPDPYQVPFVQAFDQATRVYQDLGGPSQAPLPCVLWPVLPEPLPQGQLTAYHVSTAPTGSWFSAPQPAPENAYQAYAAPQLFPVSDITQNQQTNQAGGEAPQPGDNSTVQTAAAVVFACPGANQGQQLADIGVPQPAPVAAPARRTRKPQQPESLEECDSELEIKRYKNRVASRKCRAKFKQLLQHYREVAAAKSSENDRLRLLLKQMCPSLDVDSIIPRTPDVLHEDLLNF

[3] = biological target: T1, Heat shock factor protein 1 (Mus musculus, UniProt P38532); assay: inhibition of MG132-induced HSE-luciferase signal, confirmation, cell-based, NIH3T3, luminescence, dose retest (AID 2382); type: functional;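 note: NIH3T3 fibroblasts with HSF1-driven luciferase reporter stressed by proteasome inhibitor MG132; luminescence from HSF1-driven luciferase expression after 8 hours of MG132 stress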
T1 sequence (P38532 whole entry): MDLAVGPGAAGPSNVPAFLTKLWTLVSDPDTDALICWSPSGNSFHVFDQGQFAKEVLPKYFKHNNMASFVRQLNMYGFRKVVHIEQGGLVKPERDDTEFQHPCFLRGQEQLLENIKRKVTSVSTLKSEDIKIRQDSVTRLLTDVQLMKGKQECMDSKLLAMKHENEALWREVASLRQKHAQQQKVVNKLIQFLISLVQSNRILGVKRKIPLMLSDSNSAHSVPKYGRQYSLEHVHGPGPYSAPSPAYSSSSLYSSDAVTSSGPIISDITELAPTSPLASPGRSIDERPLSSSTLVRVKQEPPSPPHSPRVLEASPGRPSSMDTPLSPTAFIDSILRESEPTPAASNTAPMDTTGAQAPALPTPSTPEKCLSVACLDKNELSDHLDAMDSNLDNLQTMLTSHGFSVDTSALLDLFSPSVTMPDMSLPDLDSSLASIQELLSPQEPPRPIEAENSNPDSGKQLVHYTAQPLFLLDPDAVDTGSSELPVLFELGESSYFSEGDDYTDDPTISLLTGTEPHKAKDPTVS

[4] = biological target: T2, Mannose-6-phosphate isomerase (Homo sapiens, UniProt P34949); assay: inhibitors of human PMI, primary screen, biochemical, fluorescence intensity, coupled assay (AID 1209)
T2 sequence (P34949 whole entry): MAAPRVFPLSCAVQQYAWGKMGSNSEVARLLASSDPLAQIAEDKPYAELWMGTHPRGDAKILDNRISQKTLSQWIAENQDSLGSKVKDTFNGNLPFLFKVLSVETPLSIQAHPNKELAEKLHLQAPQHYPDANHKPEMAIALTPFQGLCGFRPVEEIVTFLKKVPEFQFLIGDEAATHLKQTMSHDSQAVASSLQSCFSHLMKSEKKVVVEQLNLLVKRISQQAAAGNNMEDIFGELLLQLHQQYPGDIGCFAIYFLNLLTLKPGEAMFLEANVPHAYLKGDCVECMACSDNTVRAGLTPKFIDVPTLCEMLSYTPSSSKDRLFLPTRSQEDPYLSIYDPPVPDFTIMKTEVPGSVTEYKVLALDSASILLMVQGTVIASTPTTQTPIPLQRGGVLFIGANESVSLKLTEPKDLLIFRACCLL

NADPH oxidase 1 = NADPH oxidase 1 (Homo sapiens, UniProt Q9Y5S8); type: functional, cell-based;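 note: Cell-based assay with luminescence read-out, IC50 derived from inhibitor dose-response curves; intracellular ROS from endogenous NOX1 in intact HT29 colon cancer cells; potency of inhibitors that lower the ROS luminescence signal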
NADPH oxidase 1, sequence (Q9Y5S8 whole entry): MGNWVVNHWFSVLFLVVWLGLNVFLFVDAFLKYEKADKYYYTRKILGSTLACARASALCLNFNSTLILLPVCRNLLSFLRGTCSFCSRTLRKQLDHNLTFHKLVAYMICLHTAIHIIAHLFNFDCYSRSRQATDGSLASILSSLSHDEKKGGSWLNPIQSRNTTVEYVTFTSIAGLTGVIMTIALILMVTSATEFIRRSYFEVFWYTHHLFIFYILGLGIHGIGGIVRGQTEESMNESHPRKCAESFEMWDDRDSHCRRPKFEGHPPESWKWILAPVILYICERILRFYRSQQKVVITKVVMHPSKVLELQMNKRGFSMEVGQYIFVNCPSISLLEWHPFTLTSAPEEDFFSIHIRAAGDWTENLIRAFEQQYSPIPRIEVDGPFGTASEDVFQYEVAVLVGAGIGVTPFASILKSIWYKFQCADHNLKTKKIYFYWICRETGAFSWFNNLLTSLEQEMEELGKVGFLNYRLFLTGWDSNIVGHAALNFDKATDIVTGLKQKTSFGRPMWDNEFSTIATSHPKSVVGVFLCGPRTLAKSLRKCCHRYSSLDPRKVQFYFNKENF

[5] = biological target: T3, Probable nicotinate-nucleotide adenylyltransferase (Staphylococcus aureus (strain N315), UniProt P65502); type: functional, Staphylococcus aureus subsp. aureus N315;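 for IC50 Mean: confirmatory dose-response retesting of NadD inhibitor hits first found in an ultra-high-throughput screen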
T3 sequence (P65502 whole entry): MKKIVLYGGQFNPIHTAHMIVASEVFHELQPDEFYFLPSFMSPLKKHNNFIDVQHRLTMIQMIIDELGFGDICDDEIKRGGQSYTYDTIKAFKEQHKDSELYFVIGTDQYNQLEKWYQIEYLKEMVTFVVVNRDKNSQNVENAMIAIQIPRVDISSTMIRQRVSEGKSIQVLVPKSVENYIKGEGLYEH

Aspartyl aminopeptidase = Aspartyl aminopeptidase (Plasmodium falciparum 3D7, UniProt Q8I2J3); assay: Counterscreen for inhibitors of M1 and M17 aminopeptidases: QFRET-based biochemical high throughput dose response assay for inhibitors of the Plasmodium falciparum M18 Aspartyl Aminopeptidase (PFM18AAP). [Related PubChem assays: 1619 (Screening assay (M17LAP inhibitors).), 1445 (Screening assay (M1AAP inhibitors).)]
Aspartyl aminopeptidase, sequence (Q8I2J3 whole entry): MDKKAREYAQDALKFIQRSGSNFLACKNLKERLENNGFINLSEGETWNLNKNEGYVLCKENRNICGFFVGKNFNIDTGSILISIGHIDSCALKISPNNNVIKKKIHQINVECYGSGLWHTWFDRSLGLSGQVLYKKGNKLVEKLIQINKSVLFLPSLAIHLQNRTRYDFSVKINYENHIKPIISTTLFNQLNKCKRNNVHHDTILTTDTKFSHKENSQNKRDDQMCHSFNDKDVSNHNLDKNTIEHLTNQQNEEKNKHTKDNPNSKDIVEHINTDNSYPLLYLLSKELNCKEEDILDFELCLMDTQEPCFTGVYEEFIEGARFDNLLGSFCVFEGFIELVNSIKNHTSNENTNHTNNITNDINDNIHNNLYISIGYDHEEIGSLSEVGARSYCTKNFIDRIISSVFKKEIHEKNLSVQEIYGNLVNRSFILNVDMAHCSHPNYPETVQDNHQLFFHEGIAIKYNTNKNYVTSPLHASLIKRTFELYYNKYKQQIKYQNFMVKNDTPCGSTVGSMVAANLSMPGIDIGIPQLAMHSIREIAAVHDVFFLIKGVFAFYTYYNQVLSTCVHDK

Procathepsin L = Procathepsin L (Homo sapiens, UniProt P07711); assay: cathepsin L inhibitors, dose response, counter-screen for M1/M17 aminopeptidase inhibitor project, biochemical, QFRET, 1536-well (AID 2214)
Procathepsin L, sequence (P07711 whole entry): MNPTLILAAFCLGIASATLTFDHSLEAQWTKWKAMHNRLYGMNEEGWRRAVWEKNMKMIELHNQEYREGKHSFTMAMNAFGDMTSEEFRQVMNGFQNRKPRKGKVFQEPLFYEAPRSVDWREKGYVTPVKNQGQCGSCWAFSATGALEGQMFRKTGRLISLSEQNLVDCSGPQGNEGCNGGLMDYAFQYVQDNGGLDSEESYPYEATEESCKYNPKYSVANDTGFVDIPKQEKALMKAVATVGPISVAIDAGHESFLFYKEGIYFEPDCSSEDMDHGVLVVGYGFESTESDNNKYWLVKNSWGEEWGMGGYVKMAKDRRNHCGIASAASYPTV

Leucine aminopeptidase = biological target: T4, Leucine aminopeptidase (Plasmodium falciparum 3D7, UniProt Q8IL11); assay: P. falciparum M17LAP inhibitors, primary screen, biochemical, fluorogenic H-Leu-NHMec substrate, 1536-well (AID 1619); type: functional
T4 sequence (Q8IL11 whole entry): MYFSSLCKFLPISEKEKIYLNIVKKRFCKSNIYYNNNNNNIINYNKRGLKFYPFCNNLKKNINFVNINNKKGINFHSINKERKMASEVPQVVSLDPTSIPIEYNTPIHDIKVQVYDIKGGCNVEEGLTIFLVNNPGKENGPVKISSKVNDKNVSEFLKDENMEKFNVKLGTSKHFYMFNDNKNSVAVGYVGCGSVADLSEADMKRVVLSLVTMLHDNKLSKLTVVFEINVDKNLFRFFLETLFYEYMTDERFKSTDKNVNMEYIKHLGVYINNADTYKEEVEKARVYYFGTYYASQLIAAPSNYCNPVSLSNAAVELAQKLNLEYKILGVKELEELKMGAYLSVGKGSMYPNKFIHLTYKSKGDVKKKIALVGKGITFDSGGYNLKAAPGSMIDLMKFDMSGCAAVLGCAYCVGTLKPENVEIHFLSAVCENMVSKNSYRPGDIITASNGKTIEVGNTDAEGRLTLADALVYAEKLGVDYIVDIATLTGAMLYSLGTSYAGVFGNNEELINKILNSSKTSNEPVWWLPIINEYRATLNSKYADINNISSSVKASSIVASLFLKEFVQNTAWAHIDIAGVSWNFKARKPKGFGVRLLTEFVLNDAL

[6] = biological target: T3, Probable nicotinate-nucleotide adenylyltransferase; type: functional, Staphylococcus aureus subsp. aureus N315; conditions: read-out: IC50_Mean
Vero [7] = assay: host cell cytotoxicity of antiviral hits, dose response, cytotoxicity control for West Nile virus antiviral project, secondary assay (AID 1650); type: functional; conditions: Chlorocebus sabaeus
[8] = biological target: T5, Type-1 angiotensin II receptor (Homo sapiens, UniProt P30556); assay: AT1 receptor agonists, dose response, selectivity assay for APJ receptor agonist project, cell-based, uHTS hits (AID 488865); type: functional;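 note: beta-arrestin recruitment to AT1 measured by enzyme fragment complementation luminescence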
T5 sequence (P30556 whole entry): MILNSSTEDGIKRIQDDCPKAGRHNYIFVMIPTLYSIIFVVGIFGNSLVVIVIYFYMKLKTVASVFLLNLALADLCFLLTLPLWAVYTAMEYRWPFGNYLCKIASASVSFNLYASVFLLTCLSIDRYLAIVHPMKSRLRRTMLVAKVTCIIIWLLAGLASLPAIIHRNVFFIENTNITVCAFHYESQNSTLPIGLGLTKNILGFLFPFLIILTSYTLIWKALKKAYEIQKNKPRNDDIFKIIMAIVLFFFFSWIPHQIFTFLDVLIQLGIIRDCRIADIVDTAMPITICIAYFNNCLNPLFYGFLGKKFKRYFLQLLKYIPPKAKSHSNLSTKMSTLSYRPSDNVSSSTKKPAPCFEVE

[9] = yeast RAM network inhibitors, dose response, S. cerevisiae (AID 1307); type: functional
Genome polyprotein = Genome polyprotein (dengue virus type 2, UniProt P29990); assay: Dengue-2 NS5 methyltransferase inhibitors, primary screen, biochemical, confirmation dose response (AID 588689); type: functional
Genome polyprotein, sequence (P29990 2492-3391 limits assumed): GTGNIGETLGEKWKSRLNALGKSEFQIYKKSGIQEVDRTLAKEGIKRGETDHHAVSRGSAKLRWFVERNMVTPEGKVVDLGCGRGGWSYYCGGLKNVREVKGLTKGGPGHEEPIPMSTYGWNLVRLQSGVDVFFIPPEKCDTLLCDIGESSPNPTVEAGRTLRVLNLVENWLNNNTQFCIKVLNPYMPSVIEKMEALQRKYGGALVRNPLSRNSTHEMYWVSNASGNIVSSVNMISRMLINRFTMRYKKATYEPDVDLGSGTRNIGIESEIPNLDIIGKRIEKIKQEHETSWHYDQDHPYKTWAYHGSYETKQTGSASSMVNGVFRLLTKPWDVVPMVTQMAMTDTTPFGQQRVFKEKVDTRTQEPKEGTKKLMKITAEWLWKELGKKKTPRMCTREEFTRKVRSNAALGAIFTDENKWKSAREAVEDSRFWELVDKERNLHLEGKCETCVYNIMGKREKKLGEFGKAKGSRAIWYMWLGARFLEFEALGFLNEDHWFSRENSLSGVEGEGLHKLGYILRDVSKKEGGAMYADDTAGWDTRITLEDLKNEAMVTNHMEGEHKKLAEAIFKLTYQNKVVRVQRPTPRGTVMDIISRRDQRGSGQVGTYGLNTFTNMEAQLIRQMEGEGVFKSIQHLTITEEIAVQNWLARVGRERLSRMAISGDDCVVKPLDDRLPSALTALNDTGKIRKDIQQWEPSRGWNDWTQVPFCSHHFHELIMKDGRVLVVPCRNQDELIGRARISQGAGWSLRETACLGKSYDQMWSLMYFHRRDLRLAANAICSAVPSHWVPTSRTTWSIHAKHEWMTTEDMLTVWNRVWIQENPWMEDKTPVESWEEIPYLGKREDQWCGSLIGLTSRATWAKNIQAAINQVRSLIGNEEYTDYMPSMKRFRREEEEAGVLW

[10] = biological target: Eukaryotic translation initiation factor 4E (Mus musculus, UniProt P63073); assay: eIF4E–eIF4G protein interaction inhibitors, dose response, biochemical, TR-FRET (AID 855); type: functional;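 note: potency for disrupting eIF4E binding to eIF4GI seen as loss of FRET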
Eukaryotic translation initiation factor 4E, sequence (P63073 whole entry): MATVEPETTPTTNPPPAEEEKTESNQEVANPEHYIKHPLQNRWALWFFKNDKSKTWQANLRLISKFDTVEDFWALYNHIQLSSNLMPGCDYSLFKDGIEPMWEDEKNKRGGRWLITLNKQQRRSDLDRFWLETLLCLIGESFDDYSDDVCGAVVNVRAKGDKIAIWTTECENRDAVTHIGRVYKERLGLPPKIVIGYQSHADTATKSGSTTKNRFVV

Vero [11] = assay: Vero cell cytotoxicity, cytotoxicity control for flavivirus capping enzyme inhibitors (AID 588742); type: functional; conditions: Chlorocebus sabaeus
Nonstructural protein 1 = Nonstructural protein 1 (Influenza A virus, UniProt Q194T2); type: functional, Influenza A virus (A/California/07/2009(H1N1))
Nonstructural protein 1, sequence (Q194T2 whole entry): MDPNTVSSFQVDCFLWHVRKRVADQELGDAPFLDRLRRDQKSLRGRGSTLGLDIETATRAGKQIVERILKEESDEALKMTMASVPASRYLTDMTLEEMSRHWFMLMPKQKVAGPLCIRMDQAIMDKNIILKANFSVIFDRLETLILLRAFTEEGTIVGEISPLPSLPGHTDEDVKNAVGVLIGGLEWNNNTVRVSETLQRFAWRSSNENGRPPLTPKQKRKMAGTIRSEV

[12] = biological target: T6, Histone-lysine N-methyltransferase NSD2 (Homo sapiens, UniProt O96028); type: biochemical
T6 sequence (O96028 whole entry): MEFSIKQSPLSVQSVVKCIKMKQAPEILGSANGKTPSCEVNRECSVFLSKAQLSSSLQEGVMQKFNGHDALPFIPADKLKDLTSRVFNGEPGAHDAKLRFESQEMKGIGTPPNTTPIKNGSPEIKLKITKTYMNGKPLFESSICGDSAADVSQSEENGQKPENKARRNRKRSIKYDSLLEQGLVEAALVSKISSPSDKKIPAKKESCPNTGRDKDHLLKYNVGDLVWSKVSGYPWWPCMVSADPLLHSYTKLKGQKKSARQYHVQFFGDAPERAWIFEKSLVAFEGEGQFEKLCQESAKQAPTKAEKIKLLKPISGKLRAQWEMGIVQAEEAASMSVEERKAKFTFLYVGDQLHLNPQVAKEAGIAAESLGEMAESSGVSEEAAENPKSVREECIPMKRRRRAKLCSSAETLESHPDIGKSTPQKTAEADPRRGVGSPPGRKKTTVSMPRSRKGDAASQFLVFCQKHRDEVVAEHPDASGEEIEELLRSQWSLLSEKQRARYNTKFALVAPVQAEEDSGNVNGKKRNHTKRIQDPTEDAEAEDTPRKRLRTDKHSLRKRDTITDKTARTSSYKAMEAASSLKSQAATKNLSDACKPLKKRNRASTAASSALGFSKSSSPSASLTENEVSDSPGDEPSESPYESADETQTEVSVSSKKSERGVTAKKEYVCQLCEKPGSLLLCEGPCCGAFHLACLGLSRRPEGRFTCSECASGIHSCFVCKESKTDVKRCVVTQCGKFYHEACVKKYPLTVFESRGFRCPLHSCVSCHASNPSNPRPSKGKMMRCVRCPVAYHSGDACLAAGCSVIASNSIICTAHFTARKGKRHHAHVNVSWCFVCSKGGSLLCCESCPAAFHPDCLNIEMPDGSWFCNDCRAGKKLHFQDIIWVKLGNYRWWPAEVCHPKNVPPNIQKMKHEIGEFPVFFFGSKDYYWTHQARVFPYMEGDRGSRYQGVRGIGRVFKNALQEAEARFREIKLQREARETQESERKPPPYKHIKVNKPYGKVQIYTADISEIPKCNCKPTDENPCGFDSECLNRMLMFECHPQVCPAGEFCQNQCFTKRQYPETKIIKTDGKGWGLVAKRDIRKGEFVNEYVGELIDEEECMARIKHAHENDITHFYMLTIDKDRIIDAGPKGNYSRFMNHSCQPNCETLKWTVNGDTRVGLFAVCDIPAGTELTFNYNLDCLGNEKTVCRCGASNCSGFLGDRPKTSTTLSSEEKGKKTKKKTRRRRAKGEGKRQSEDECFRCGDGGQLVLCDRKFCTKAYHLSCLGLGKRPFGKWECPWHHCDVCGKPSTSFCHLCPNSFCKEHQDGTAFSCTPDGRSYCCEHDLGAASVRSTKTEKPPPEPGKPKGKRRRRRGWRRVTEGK

Vasopressin V1a receptor, sequence (P37288 whole entry): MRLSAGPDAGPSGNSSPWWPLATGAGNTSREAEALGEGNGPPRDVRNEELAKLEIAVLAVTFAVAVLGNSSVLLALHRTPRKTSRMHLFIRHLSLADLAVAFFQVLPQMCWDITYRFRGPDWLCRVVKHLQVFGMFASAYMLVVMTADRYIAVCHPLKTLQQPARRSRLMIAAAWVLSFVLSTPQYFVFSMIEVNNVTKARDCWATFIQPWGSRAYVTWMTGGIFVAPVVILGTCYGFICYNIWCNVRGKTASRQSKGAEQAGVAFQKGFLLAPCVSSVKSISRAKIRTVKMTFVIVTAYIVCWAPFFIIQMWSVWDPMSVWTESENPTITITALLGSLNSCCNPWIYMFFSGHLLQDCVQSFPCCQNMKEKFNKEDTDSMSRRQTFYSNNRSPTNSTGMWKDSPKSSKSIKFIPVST

With `CCSC1=N/C(=C\C=C2/Oc3ccccc3N2CC)C(=O)S1` the EC50 (Vasopressin V1a receptor) was > 29.9 µM (not active), the EC50 (Oxytocin receptor) was > 29.9 µM (not active) and the EC50 (Troponin, cardiac muscle) was 4.53 µM (active).
In the case of `CN1CCN(c2ccc(-c3cccc(NC(=O)COc4ccc(Cl)cc4Cl)c3)nn2)CC1`, the IC50 [1] is reported as > 148 µM (not active) and the IC50 [2] is reported as > 111 µM (not active).
For `Cc1nn(-c2ccccc2)c(S)c1/C=N/c1cccc([N+](=O)[O-])c1`, the EC50 [3] was > 195 µM (not active) and the IC50 [4] was 19.1 µM (active).
With `C(=N\Nc1ccccc1)/c1ccccc1` the IC50 (NADPH oxidase 1) was 13 µM (active).
For `CCn1c2ccccc2c2cc(NC(=O)CSc3nccc(O)n3)ccc21`, the IC50 [5] was 15.3 µM (active), the IC50 (Aspartyl aminopeptidase) was > 73.5 µM (not active) and the IC50 (Procathepsin L) was > 59.6 µM (not active). The IC50 (Leucine aminopeptidase) was 1.41 µM (active) and the IC50 [6] was 42.4 µM (active).
For `CCOC(=O)N1CCN(S(=O)(=O)c2ccc(C(=O)N(CCCN(C)C)c3nc4ccc(Cl)cc4s3)cc2)CC1`, the CC50 (Vero [7]) was 10.1 µM (active) and the EC50 [8] was > 100 µM (inactive).
For `Cc1cc(C)c(Nc2cc(S(=O)(=O)O)c(N)c3c2C(=O)c2ccccc2C3=O)c(C)c1` [ACID BLUE 129], the IC50 [9] was 139 µM (active), the IC50 (Genome polyprotein) was 21.5 µM (active) and the IC50 [10] was 26.1 µM (inactive). For the same molecule, the CC50 (Vero [11]) was > 40 µM (active), the IC50 (Nonstructural protein 1) was 3.96 µM (active) and the AC50 [12] was 3.75 µM (active).
